US20060069132A1, “Azolecarboxamide herbicides” (priority 2004, published 2006)

How the values were obtained:
Assay in all cases: Test C pre-/postemergence herbicide test
cocklebur = assay type: in vivo, Xanthium strumarium; conditions: for Plant response rating, Cocklebur / Plant response rating (0 = no effect, 100 = complete control), Cocklebur: preemergence
Procedure, shortened: (§1)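 Visual injury scores run from 0 (no effect) to 100 (complete control), assessed relative to untreated controls 12 to 14 days after treatment in the greenhouse. Chemicals were formulated in a non-phytotoxic solvent mixture with surfactant and applied to soil after planting or to emerged plants at the 1- to 4-leaf stage.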

kochia = assay type: in vivo, Kochia scoparia; conditions: for Plant response rating (0 = no effect, 100 = complete control), Kochia / Plant response rating, Kochia: preemergence
Procedure, shortened: as §1

bermudagrass = assay type: in vivo, Cynodon dactylon; conditions: for Plant response rating, Bermudagrass / Plant response rating (0 = no effect, 100 = complete control), Bermudagrass: preemergence
Procedure, shortened: as §1

corn = assay type: in vivo, Zea mays; conditions: for Plant response rating, Corn / Plant response rating (0 = no effect, 100 = complete control), Corn: preemergence
Procedure, shortened: as §1

goosegrass = assay type: in vivo, Eleusine indica; conditions: for Plant response rating, Goosegrass / Plant response rating (0 = no effect, 100 = complete control), Goosegrass: preemergence
Procedure, shortened: as §1

[1] = system: common (oilseed) sunflower; assay type: in vivo, Helianthus annuus; conditions: for Plant response rating, Sunflower / Plant response rating (0 = no effect, 100 = complete control), Sunflower: preemergence
Procedure, shortened: as §1

large crabgrass = assay type: in vivo, Digitaria sanguinalis; conditions: for Plant response rating, Crabgrass, Large / Plant response rating (0 = no effect, 100 = complete control), Crabgrass, Large: preemergence
Procedure, shortened: as §1

giant foxtail = assay type: in vivo, Setaria faberi; conditions: for Plant response rating, Foxtail, Giant / Plant response rating (0 = no effect, 100 = complete control), Foxtail, Giant: preemergence
Procedure, shortened: as §1

Surinam grass = assay type: in vivo, Urochloa decumbens; conditions: for Plant response rating, Surinam Grass / Plant response rating (0 = no effect, 100 = complete control), Surinam Grass: preemergence
Procedure, shortened: as §1

[2] = 500 g ai/ha, scale 0 to 100 (0 no effect, 100 complete control), visual, 12 to 14 days
[3] = 125 g ai/ha, scale 0 (no effect) to 100 (complete control), visual, 12 to 14 days
[4] = 250 g ai/ha, scale 0 to 100 (0 no effect, 100 complete control), visual, 12 to 14 days
[5] = Preemergence, 500 g ai/ha, scale 0 to 100, 0 no effect, 100 complete control

Compound: CCNC(=O)c1ccc(F)c(N(C(C)=O)C(=O)c2cc(C(C)(C)C)nn2CC)c1 [Compound 399]
- Plant response rating, Cocklebur (cocklebur; 62 g ai/ha, scale 0 to 100): 15
- Plant response rating (0 = no effect, 100 = complete control), Cocklebur (cocklebur; 125 g ai/ha): 65
- Plant response rating, Cocklebur (cocklebur; 250 g ai/ha, scale 0-100): 70
- Plant response rating, Cocklebur (cocklebur; [2]): 80
- Plant response rating (0 = no effect, 100 = complete control), Kochia (kochia; 125 g ai/ha): 80
- Plant response rating, Kochia (kochia; 250 g ai/ha, scale 0-100): 100
- Plant response rating, Kochia (kochia; [2]): 100
- Plant response rating, Bermudagrass (bermudagrass; 62 g ai/ha, scale 0 to 100, 0 no effect, 100 complete control): 100
- Plant response rating (0 = no effect, 100 = complete control), Bermudagrass (bermudagrass; 125 g ai/ha): 100
- Plant response rating, Bermudagrass (bermudagrass; 250 g ai/ha, scale 0-100): 100
- Plant response rating, Bermudagrass (bermudagrass; [2]): 100
- Plant response rating, Corn (corn; 62 g ai/ha, scale 0 to 100): 60
- Plant response rating (0 = no effect, 100 = complete control), Corn (corn; 125 g ai/ha): 70
- Plant response rating, Corn (corn; 250 g ai/ha, scale 0-100): 80
- Plant response rating, Corn (corn; [2]): 95
- Plant response rating, Goosegrass (goosegrass; 62 g ai/ha, scale 0 to 100): 95
- Plant response rating (0 = no effect, 100 = complete control), Goosegrass (goosegrass; 125 g ai/ha): 100
- Plant response rating, Goosegrass (goosegrass; 250 g ai/ha, scale 0-100): 100
- Plant response rating, Goosegrass (goosegrass; [2]): 100
- Plant response rating, Sunflower ([1]; 62 g ai/ha, scale 0 to 100): 0
- Plant response rating (0 = no effect, 100 = complete control), Sunflower ([1]; 125 g ai/ha): 0
- Plant response rating, Sunflower [1, 2]: 35
- Plant response rating, Crabgrass, Large (large crabgrass; 62 g ai/ha, scale 0 to 100): 100
- Plant response rating (0 = no effect, 100 = complete control), Crabgrass, Large (large crabgrass; 125 g ai/ha): 100
- Plant response rating, Crabgrass, Large (large crabgrass; 250 g ai/ha, scale 0-100): 100
- Plant response rating, Crabgrass, Large (large crabgrass; [2]): 100
- Plant response rating, Foxtail, Giant (giant foxtail; 62 g ai/ha, scale 0 to 100): 95
- Plant response rating (0 = no effect, 100 = complete control), Foxtail, Giant (giant foxtail; 125 g ai/ha): 100
- Plant response rating, Foxtail, Giant (giant foxtail; 250 g ai/ha, scale 0-100): 100
- Plant response rating, Foxtail, Giant (giant foxtail; [2]): 100
- Plant response rating, Surinam Grass (Surinam grass; 62 g ai/ha, scale 0 to 100): 95
- Plant response rating (0 = no effect, 100 = complete control), Surinam Grass (Surinam grass; 125 g ai/ha): 95
- Plant response rating, Surinam Grass (Surinam grass; [2]): 100

Compound: CCCn1nc(C(C)(C)C)cc1C(=O)Nc1cccc(C(=O)NCC)c1 [Compound 57]
- Plant response rating (0 = no effect, 100 = complete control), Cocklebur (cocklebur; 62 g ai/ha): 0
- Plant response rating, Cocklebur (cocklebur; [3]): 0
- Plant response rating, Cocklebur (cocklebur; [4]): 0
- Cocklebur plant response rating (cocklebur; [5]): 0
- Plant response rating (0 = no effect, 100 = complete control), Kochia (kochia; 62 g ai/ha): 100
- Plant response rating, Kochia (kochia; [3]): 100
- Plant response rating, Kochia (kochia; [4]): 100
- Kochia plant response rating (kochia; [5]): 100
- Plant response rating (0 = no effect, 100 = complete control), Bermudagrass (bermudagrass; 62 g ai/ha): 55
- Plant response rating, Bermudagrass (bermudagrass; [3]): 95
- Plant response rating, Bermudagrass (bermudagrass; [4]): 95
- Bermudagrass plant response rating (bermudagrass; [5]): 100
- Plant response rating (0 = no effect, 100 = complete control), Corn (corn; 62 g ai/ha): 0
- Plant response rating, Corn (corn; [3]): 0
- Plant response rating, Corn (corn; [4]): 0
- Corn plant response rating (corn; [5]): 0
- Plant response rating (0 = no effect, 100 = complete control), Goosegrass (goosegrass; 62 g ai/ha): 45
- Plant response rating, Goosegrass (goosegrass; [3]): 75
- Plant response rating, Goosegrass (goosegrass; [4]): 90
- Goosegrass plant response rating (goosegrass; [5]): 90
- Plant response rating (0 = no effect, 100 = complete control), Sunflower ([1]; 62 g ai/ha): 0
- Plant response rating, Sunflower [1, 3]: 0
- Plant response rating, Sunflower [1, 4]: 0
- Sunflower plant response rating [1, 5]: 0
- Plant response rating (0 = no effect, 100 = complete control), Crabgrass, Large (large crabgrass; 62 g ai/ha): 95
- Plant response rating, Crabgrass, Large (large crabgrass; [3]): 100
- Plant response rating, Crabgrass, Large (large crabgrass; [4]): 100
- Crabgrass, Large plant response rating (large crabgrass; [5]): 100
- Plant response rating (0 = no effect, 100 = complete control), Foxtail, Giant (giant foxtail; 62 g ai/ha): 20
- Plant response rating, Foxtail, Giant (giant foxtail; [3]): 95
- Plant response rating, Foxtail, Giant (giant foxtail; [4]): 100
- Foxtail, Giant plant response rating (giant foxtail; [5]): 100
- Plant response rating (0 = no effect, 100 = complete control), Surinam Grass (Surinam grass; 62 g ai/ha): 0
- Plant response rating, Surinam Grass (Surinam grass; [3]): 15
- Plant response rating, Surinam Grass (Surinam grass; [4]): 35
- Surinam Grass plant response rating (Surinam grass; [5]): 75
